Reference: patent publication US9006205B2, “Antisense oligonucleotides against neutral sphingomyelinase and neutral sphingomyelinase inhibitor GW4869 for degenerative neurological disorders” (Rush University Medical Center, priority 2011, dated 2015)

Key:
Format in all cases: cell-based
primary human neurons [1] = experiment: TUNEL apoptosis of neurons challenged by (fibrillar Aβ+IL-1β)-activated astrocytes, astrocyte-neuron trans-well; conditions: neurons pretreated 40 h with 1 μM oligonucleotide; 6 h with (fibrillar Aβ+IL-1β)-activated astrocytes
Description: (§1) Primary human astrocytes were grown to confluency on inserts. After 24 h of stimulation by the combination of Aβ (1 μM) and IL-Iβ (10 ng/ml), inserts were washed thrice with HBSS and then placed onto the wells containing primary human neurons. Therefore, in this trans-well model, although neurons and astrocytes face each other, they are separable and the effect of soluble factors released from activated astrocytes on neurons can be studied allowing analysis of neuronal and glial populations separately.
Fragmented DNA was detected in situ by the terminal deoxynucleotidyltransferase-mediated binding of 3′-OH ends of DNA fragments generated in response to fibrillar Aβ1-42, using a commercially available kit (TdT FragEL™) from Calbiochem. […]
(§2) Primary human neurons were incubated with antisense (ASO) and scrambled oligonucleotides (ScO) against N-SMase (A) and A-SMase (FIG. 2B). After 48 h, neurons were analyzed for protein expression of N-SMase and A-SMase. […] After 6 h of treatment with activated astrocytes, apoptotic events in neurons were detected by TUNEL. In FIG. 2D, TUNEL-positive cells were counted manually in four different images of each of three coverslips by three individuals blinded to the experiment. […] Values obtained from the control group served as 100%, and data obtained in other groups were calculated as percent of control accordingly. […]

primary human neurons [2] = experiment: LDH release from neurons in astrocyte-neuron trans-well; conditions: neurons pretreated with oligonucleotide; 18 h of stimulation
Description: as §1
The activity of lactate dehydrogenase (LDH) was measured using the direct spectrophotometric assay using an assay kit from Sigma.
as §2, with “A-SMase. In FIG. 2C, primary human astrocytes seeded in inserts were stimulated by the combination of Aβ and IL-1β as described above.” for “A-SMase.”, “experiment. In FIG. 2E, after 18 h of stimulation, cell viability was examined by the metabolism of MTT and the release of LDH.” for “experiment.”
In FIGS. 3A-3E, primary human astrocytes seeded in inserts were stimulated by the combination of Aβ and IL-Iβ as described above. […] In FIG. 3A, after 1 h, activity of N-SMase was measured in total cell extracts of neurons as described above. […] Values obtained from the control group served as 100%, and data obtained in other groups were calculated as percent of control accordingly. […] Primary human neurons were treated with 25 μM DETA-NONOate (a NO donor) and at different time points of treatment, activities of N-SMase (FIG. 3D) and A-SMase (FIG. 3E) were monitored. ^ap<0.001 vs control (0 h).

iNOS = iNOS mRNA expression (RT-PCR, real-time PCR) in activated primary human astrocytes; conditions: oligonucleotide 40 h, then 6 h of stimulation
Description: (§3) Total RNA was isolated from human primary astrocytes using RNA-Easy Qiagen kit following manufactures protocol. To remove any contaminating genomic DNA, total RNA was digested with DNase. Semi-quantitative RT-PCR was carried out as described earlier using oligo (dT) 12-18 as primer and MMLV reverse transcriptase (Clontech) in a 20-μl reaction mixture. The resulting cDNA was appropriately diluted, and diluted cDNA was amplified using Titanium Taq polymerase and the following primers for human proinflammatory genes: […]
It was performed using the ABI-Prism7700 sequence detection system (Applied Biosystems, Foster City, Calif.) using TaqMan Universal Master Mix and optimized concentrations of FAM-labeled probe, forward and reverse primers (Applied Biosystems) as described earlier. […] Data were processed by the ABI Sequence Detection System 1.6 software and analyzed by ANOVA.
Cells pretreated with ASO and ScO against N-SMase and A-SMase for 40 h were stimulated with (Aβ+IL-1β) under serum-free condition. After 24 h of stimulation, the concentration of nitrite was measured in supernatants (FIG. 4A) by Griess reagent. […] After 6 h, the expression of iNOS mRNA was analyzed by both semi-quantitative RT-PCR (C) and quantitative real-time PCR (FIG. 4D). The expression of TNF-a, IL-6 and IL-Iβ mRNAs were analyzed by semi-quantitative RT-PCR (FIG. 4E). […]

primary human astroglia = experiment: NO synthesis (nitrite, Griess reagent) in primary human astroglia; conditions: astroglia pretreated 40 h with oligonucleotide; nitrite after 24 h of stimulation
Description: Synthesis of NO was determined by assay of culture supernatants for nitrite, a stable reaction product of NO with molecular oxygen, using Griess reagent as described.
(§4) After 24 h of stimulation, the concentration of nitrite was measured in supernatants (FIG. 4A) by Griess reagent. […] Cells were treated with ASO/ScO for 40 h followed by stimulation with the combination of fibrillar Aβ and IL-Iβ as above. After 6 h, the expression of iNOS mRNA was analyzed by both semi-quantitative RT-PCR (C) and quantitative real-time PCR (FIG. 4D). The expression of TNF-a, IL-6 and IL-Iβ mRNAs were analyzed by semi-quantitative RT-PCR (FIG. 4E). Results are mean±SD of three different experiments. ^ap<0.001 vs control; ^bp<0.001 vs (Aβ+IL-Iβ).

[3] = system: TNF-α, IL-1β and IL-6 mRNAs; experiment: TNF-α, IL-1β and IL-6 mRNA expression (RT-PCR) in activated primary human astroglia; conditions: oligonucleotide 40 h, then 6 h of stimulation
Description: as §3
as §4, with “Cells pretreated with ASO and ScO against N-SMase and A-SMase for 40 h were stimulated with (Aβ+IL-1β) under serum-free condition. After 24” for “After 24”

NF-κB = experiment: EMSA of NF-κB DNA-binding activity in primary human astroglia; conditions: 1 μM oligonucleotide 40 h; 1 h of stimulation

5′- CAGCGAGCCCGTCCACCAGCC -3′ (DNA, all phosphorothioate, methylation of C not given here) [ASO against N-SMase, ID; NO.: 12]
protection of neurons from activated astrocyte-induced apoptosis (TUNEL) (primary human neurons [1]): markedly protected | LDH release from neurons (primary human neurons [2]): significant reduction | (Aβ+IL-1β)-induced expression of iNOS mRNA (iNOS): strongly inhibited | (Aβ+IL-1β)-induced production of NO (primary human astroglia): markedly abrogated | (Aβ+IL-1β)-induced expression of TNF-α, IL-1β and IL-6 mRNAs [3]: abrogated | (Aβ+IL-1β)-induced DNA-binding activity of NF-κB (NF-κB): suppressed
